Tested on: moderate to severe Alzheimer's patients treated with ongoing donepezil therapy
Assay: MD-02 (Therapy Example 2): 24-week double-blind placebo-controlled trial of memantine added to ongoing donepezil
Format: in vivo, human
Conditions: MD-02, on donepezil, week 24, ITT LOCF
Method: A 24 week, double-blind, placebo-controlled trial was conducted in moderate to severe Alzheimer's patients (N=404) treated with ongoing donepezil therapy and randomized to memantine or placebo. Behavioral symptoms were assessed using the NPI administered at baseline, Week 12 and the final visit (Week 24). The trial already had established benefits of memantine on functional, cognitive, and global measures. The statistical analysis was based on the ITT population using the last observation carried forward (LOCF) and observed case (OC) approaches.
This study enrolled four hundred and four patients diagnosed with probable AD according to the National Institute of Neurological and Communicative Disorders and Stroke—Alzheimer's Disease and Related Disorders Association (NINCDS-ADRDA) criteria with moderate to severe stages of illness. Inclusion criteria were as follows: Mini-Mental State Examination (MMSE) score of 5-14 at screening and at baseline; minimum age of 50 years; a recent MRI or CT scan consistent with a diagnosis of probable AD; on AChEI therapy, which was defined by the protocol to be donepezil, for more than 6 months prior to entrance into the trial and at a stable dose (5-10 mg/day) for at least 3 months prior to entrance in the trial; a knowledgeable and reliable caregiver to accompany the patient to research visits and oversee the administration of the investigational agent during the trial; residence in the community; ambulatory or ambulatory-aided (i.e. walker or cane) ability; and stable medical condition.
Patients were excluded for clinically significant reasons; B12 or folate deficiency; active pulmonary, gastrointestinal, renal, hepatic, endocrine, or cardiovascular disease; other psychiatric or central nervous system disorders; CT or MRI evidence of clinically significant central nervous system disorders other than probable AD; dementia complicated by other organic disease; or a modified Hachinski Ischemia Score30 greater than 4 at screening.
This was a prospective, randomized, placebo-controlled, parallel-arm, fixed-dose trial in which participants were assigned to double-blind treatment for 24 weeks with a 1-2 week single-blind, placebo lead-in phase prior to randomization. The initial dose of memantine was 5 mg/day with escalation to 20 mg/day over the first 3 weeks of double-blind treatment. All patients were to maintain their protocol-defined AChEI therapy at entry dose for the duration of the study. From week 3 to the end of week 8 of double-blind treatment, transient dosage adjustments for memantine treatment were permitted for patients experiencing dose-limiting adverse events. All memantine-treated patients were required to receive the target dose of 20 mg/day by the end of week 8, and patients not tolerating the target dose at that time were discontinued.
Patients were randomly allocated in permuted blocks of four to one of the two treatment. Blinded study medication was supplied to each study site for dispensation in blister packs at each visit. No unblinding occurred during the trial. Compliance monitoring was conducted via pill counts, and over 95% of both treatment groups had >75% compliance (95% for the placebo/AChEI treatment group and 96.5% for the memantine/AChEI treatment group).
Cognitive, functional, global, and behavioral outcome measures were obtained at screening, baseline, and at the end of weeks 4, 8, 12, 18, and 24. […] The efficacy parameters were the change from baseline on the SIB, a modified ADCS-ADL Inventory score at week 24, and the NPI. The 12-item version of the NPI was used here, with a total score ranging from 0-144. Higher scores reflect greater symptomatology. The NPI was assessed at baseline, at the end of week 12, and at the final visit.
Three populations were considered in the statistical analyses. […]

[1] = NPI total score ≧=75% (top quartile)
[2] = antipsychotics usage “YES” (N = n)
[3] = antipsychotics usage “YES” (N = y)
[4] = baseline NPI agitation score <4
[5] = baseline NPI agitation score ≧=4

For CC12CC3CC(C)(C1)CC(N)(C3)C2 [memantine, 1-amino-3,5-dimethyl adamantane], which “ADCS-ADL (change) LS Mean Diff., MEM v. PLA” value (NPI total score <75%) is on record?
The value was 1.17.

And the “ADCS-ADL (change) mean” value (NPI total score <75%)?
The value was −1.6.

What about the “CIBIC-PLUS Raw Mean Diff., MEM v. PLA” value (NPI total score <75%) of the same compound?
The value was −0.2.

And the CIBIC-PLUS mean (NPI total score <75%)?
Its CIBIC-PLUS mean is 4.4.

What about the “SIB (change) LS Mean Diff., MEM v. PLA” value (NPI total score <75%) of the same compound?
The value was 2.5.

What about the “SIB (change) mean” value (NPI total score <75%) of the same compound?
Its value is 0.9.

What about the “ADCS-ADL (change) LS Mean Diff., MEM v. PLA” value [1] of the same compound?
Its value is 1.73.

And the “ADCS-ADL (change) mean” value [1]?
The value was −2.6.

And the “CIBIC-PLUS Raw Mean Diff., MEM v. PLA” value [1]?
Its value is −0.3.

What about the CIBIC-PLUS mean [1] of the same compound?
Its CIBIC-PLUS mean is 4.4.

What about the “SIB (change) LS Mean Diff., MEM v. PLA” value [1] of the same compound?
The value was 6.1.

And the “SIB (change) mean” value [1]?
Its value is −1.4.

What about the “ADCS-ADL (change) LS Mean Diff., MEM v. PLA” value (NPI total score ≧=75% (top quartile), listed as MEM) of the same compound?
The value was −1.73.

What about the “ADCS-ADL (change) LS Mean Diff., MEM v. PLA” value [2] of the same compound?
The value was 0.9.

And the “ADCS-ADL (change) mean” value [2]?
The value was −1.8.

And the “CIBIC-PLUS Raw Mean Diff., MEM v. PLA” value [2]?
The value was −0.08.

And the CIBIC-PLUS mean [2]?
The CIBIC-PLUS mean was 4.45.

And the “SIB (change) LS Mean Diff., MEM v. PLA” value [2]?
The value was 1.7.

And the “SIB (change) mean” value [2]?
Its value is 0.3.

What about the “ADCS-ADL (change) LS Mean Diff., MEM v. PLA” value [3] of the same compound?
The value was 3.6.

And the “ADCS-ADL (change) mean” value [3]?
The value was −2.1.

What about the “CIBIC-PLUS Raw Mean Diff., MEM v. PLA” value [3] of the same compound?
The value was −1.18.

And the CIBIC-PLUS mean [3]?
Its CIBIC-PLUS mean is 4.17.

What about the “SIB (change) LS Mean Diff., MEM v. PLA” value [3] of the same compound?
Its value is 12.4.

What about the “SIB (change) mean” value [3] of the same compound?
The value was 5.2.

And the “ADCS-ADL (change) LS Mean Diff., MEM v. PLA” value [4]?
The value was 1.2.

What about the “ADCS-ADL (change) mean” value [4] of the same compound?
The value was −1.8.

What about the “CIBIC-PLUS Raw Mean Diff., MEM v. PLA” value [4] of the same compound?
The value was −0.3.

What about the CIBIC-PLUS mean [4] of the same compound?
Its CIBIC-PLUS mean is 4.4.

What about the “SIB (change) LS Mean Diff., MEM v. PLA” value [4] of the same compound?
Its value is 3.6.

And the “SIB (change) mean” value [4]?
Its value is 1.0.

What about the “SIB (change) LS Mean Diff., MEM v. PLA” value (baseline NPI agitation score <4, listed as MEM) of the same compound?
Its value is 3.4.

What about the “ADCS-ADL (change) LS Mean Diff., MEM v. PLA” value [5] of the same compound?
The value was 2.1.

What about the “ADCS-ADL (change) mean” value [5] of the same compound?
Its value is −2.0.

And the “CIBIC-PLUS Raw Mean Diff., MEM v. PLA” value [5]?
The value was −0.1.

And the “SIB (change) LS Mean Diff., MEM v. PLA” value [5]?
Its value is 3.8.

What about the “SIB (change) mean” value [5] of the same compound?
Its value is 1.1.

And the “ADCS-ADL (change) LS mean” value (overall)?
Its value is −2.00.

And the “CIBIC-PLUS LS mean” value (overall)?
Its value is 4.41.

And the “SIB (change) LS mean” value (overall)?
The value was 0.90.

And the “ADCS-ADL (change) LS Mean Diff., MEM v. PLA” value (overall, listed as MEM)?
Its value is −1.40.

What about the “CIBIC-PLUS Raw Mean Diff., MEM v. PLA” value (overall, listed as MEM) of the same compound?
The value was −0.25.

What about the “SIB (change) LS Mean Diff., MEM v. PLA” value (overall, listed as MEM) of the same compound?
The value was −3.40.

— US20050203191A1, “1-Aminocyclohexane derivatives for the treatment of agitation and other behavioral disorders, especially those associated with alzheimer's disease” (priority 2004, published 2005)
